# From patent publication US9206159B2, “Piperazine-piperidine compounds as hepatitis C virus inhibitors” (Theravance Biopharma R&D IP, LLC, priority 2012, dated 2015)
# System: HCV genotype 1a replicon cell line
# Experiment: HCV Genotype 1a Replicon Assay
# Type: cell-based, hepatitis C virus
# Conditions: Hepatitis C virus, Huh7.5 cell background, NS3-specific protease activity in lysates, 48 or 72 hours, read-out: Genotype 1a (pEC50 class) (converted)
# Description: Assay 2: HCV Genotype 1a Replicon Assay
# The HCV genotype 1a replicon cell line was obtained from Apath LLC (APC89; Huh7.5 cell background). This subgenomic replicon contains the N-terminus of the HCV core protein fused to the neomycin-resistance selectable marker. The EMCV IRES lies downstream and drives expression of the non-structural proteins NS3-NS5B. Compound potencies were determined using the NS3-specific protease activity in lysates as a measurement of compound inhibition of replicon levels.
# Cells were grown at 37° C. in a 5% CO2 humidified incubator in DMEM (Invitrogen) with 10% FBS (HyClone), 1×NEAA (Invitrogen), 1× Pen-Strep (Invitrogen), and 850 μg/mL G418 (Invitrogen). On day 1 of the assay, cells were plated at 15,000 cells/well in black 96-well tissue culture plates (Costar) in 200 μL media lacking G418. Four hours later, once the cells had adhered, the media was removed and replaced with media (no G418) containing dose-responses of test compounds. Compounds were initially diluted in DMSO and then diluted another 200× in media to bring the final DMSO concentration down to 0.5%. The cells were incubated with test compounds for 48 or 72 hours. At the end of the incubation period, media and compound were removed from the plates.
# To determine the NS3-specific protease activity in lysates, the cells were lysed at room temperature in 50 μL/well of 50 mM Hepes pH 7.5, 150 mM NaCl, 15% Glycerol, 0.15% Triton X-100, 10 mM DTT for 20 minutes with shaking. 50 μL of an NS3/4a protease-specific FRET substrate (Anaspec RET SI Cat#22991) was then added to the wells at a final concentration of 15 μM. The plates were incubated at 37° C. for 20 minutes, which corresponds to a timepoint at which the protease activity is still in the linear phase. Protease activity was determined by measuring fluorescence (Excitation: 340 nm; Emission: 509 nm).
# To analyze the data, the fluorescence was plotted vs. the compound concentration, and EC50 values were determined from a 4-parameter robust fit model using GraphPad Prism software.
row,SMILES,EC50 [nM]
1,"COC(=O)N[C@H](C(=O)N1C[C@@H](C)C[C@H]1c1nc(-c2ccc(-c3cc(Cl)c(NC(=O)N4CCN(C5CCN(C(=O)C6CC6(Cl)Cl)CC5)CC4)cc3OC(F)(F)F)cc2)c[nH]1)C(C)C (stereo partly drawn) [Example 2, [(S)-1-((S)-2-{4-[5′-Chloro-4′-({4-[1-(2,2-dichloro-cyclopropanecarbonyl)-piperidin-4-yl]-piperazine-1-carbonyl}-amino)-2′-trifluoromethoxy-biphenyl-4-yl]-1H-imidazol-2-yl}-4-methyl-pyrrolidine-1-carbonyl)-2-methyl-propyl]-carbamic acid methyl ester]",1 to 10

# Same assay, conditions: Huh7.5 cell background, NS3-specific protease activity in lysates, 48 or 72 hours
row,SMILES,Genotype 1a (pEC50 class)
1,COC(=O)N[C@H](C(=O)N1CCC[C@H]1c1nc(-c2ccc(-c3cc(Cl)c(NC(=O)N4CCN(C5CCN(C(=O)OC(C)(C)C)CC5)CC4)cc3OC(F)(F)F)cc2)c[nH]1)C(C)C [Example 1-36],"C (C represents pEC50 between and 9 and about 10, (EC50 between 1 nM and 0.1 nM))"
2,COC(=O)NC(C(=O)N1CCCC1c1nc(-c2ccc(-c3ccc(NC(=O)N4CCN(C5CCN(C(=O)C6CC6(C)C)CC5)C(C)C4)cc3OC(F)(F)F)cc2)c[nH]1)C(C)C (stereo not drawn) [Example 1-37],B (B represents pEC50 between 8 and 9 (EC50 between 1 and 10 nM))
3,COC(=O)NC(C(=O)N1CCCC1c1nc(-c2ccc(-c3ccc(NC(=O)N4CCN(C5CCN(C(=O)OC(C)(C)C)CC5)C(C)C4)cc3OC(F)(F)F)cc2)c[nH]1)C(C)C (stereo not drawn) [Example 1-38],B (B represents pEC50 between 8 and 9 (EC50 between 1 and 10 nM))
4,CNC(=O)N1CCC(N2CCN(C(=O)Nc3ccc(-c4ccc(-c5c[nH]c(C6CCCN6C(=O)C(NC(=O)OC)C(C)C)n5)cc4)c(OC(F)(F)F)c3)CC2C)CC1 (stereo not drawn) [Example 1-39],B (B represents pEC50 between 8 and 9 (EC50 between 1 and 10 nM))
5,COC(=O)NC(C(=O)N1CCCC1c1nc(-c2ccc(-c3ccc(NC(=O)N4CCN(C5CCN(C(=O)C6CC6)CC5)C(C)C4)cc3OC(F)(F)F)cc2)c[nH]1)C(C)C (stereo not drawn) [Example 1-40],B (B represents pEC50 between 8 and 9 (EC50 between 1 and 10 nM))
6,COC(=O)N[C@H](C(=O)N1CCC[C@H]1c1nc(-c2ccc(-c3ccc(NC(=O)N4CCN(C5CCN(C(=O)C6CC6)CC5)C[C@@H]4C)cc3OC(F)(F)F)cc2)c[nH]1)C(C)C [Example 1-41],B (B represents pEC50 between 8 and 9 (EC50 between 1 and 10 nM))
7,COC(=O)NC(C(=O)N1CCCC1c1nc(-c2ccc(-c3ccc(NC(=O)N4CCN(C5CCN(C(=O)C(C)(C)C)CC5)C(CO)C4)cc3OC(F)(F)F)cc2)c[nH]1)C(C)C (stereo not drawn) [Example 1-42],B (B represents pEC50 between 8 and 9 (EC50 between 1 and 10 nM))
8,CNC(=O)N1CCC(N2CCN(C(=O)Nc3ccc(-c4ccc(-c5c[nH]c(C6CCCN6C(=O)C(NC(=O)OC)C(C)C)n5)cc4)c(OC(F)(F)F)c3)CC2CO)CC1 (stereo not drawn) [Example 1-43],A (A represents a pEC50 value between 6 and 8 (EC50 between 1 μM and 10 nM))
9,COC(=O)NC(C(=O)N1CCCC1c1nc(-c2ccc(-c3ccc(NC(=O)N4CCN(C5CCN(C(=O)C6CC6)CC5)C(CO)C4)cc3OC(F)(F)F)cc2)c[nH]1)C(C)C (stereo not drawn) [Example 1-44],A (A represents a pEC50 value between 6 and 8 (EC50 between 1 μM and 10 nM))
10,COC(=O)NC(C(=O)N1CCCC1c1nc(-c2ccc(-c3ccc(NC(=O)N4CCN(C5CCN(C(=O)C6CC6(C)C)CC5)C(CO)C4)cc3OC(F)(F)F)cc2)c[nH]1)C(C)C (stereo not drawn) [Example 1-45],B (B represents pEC50 between 8 and 9 (EC50 between 1 and 10 nM))
11,COC(=O)N[C@H](C(=O)N1C[C@@H](C)C[C@H]1c1nc(-c2ccc(-c3ccc(NC(=O)N4CCN(C5CCN(C(=O)C6CC6)CC5)CC4)cc3OC(F)(F)F)cc2)c[nH]1)C(C)C [Example 2-1],D (D represents pEC50>10 (EC50<0.1 nM))
